Laboratory results: the supplement of paper PMC10307832

Assays:
Test in all cases: relative viability (nuclei count vs DMSO), 5 days (fraction); higher = more cells survive
[1] = compound: CC(O)(CS(=O)(=O)c1ccc(F)cc1)C(=O)Nc1ccc(C#N)c(C(F)(F)F)c1 [Bicalutamide] + CC(=O)c1c(C)c2cnc(Nc3ccc(N4CCNCC4)cn3)nc2n(C2CCCC2)c1=O [Palbociclib] (partner 0.5 µM)
Summary of the method: (§1)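 Lung cancer cell lines, seeded in 1536-well plates, were treated the following day by pin tool with a single drug or with five library-drug doses (not always all listed) in √10 steps on top of a fixed anchor-drug dose. Cells were fixed and nuclei stained in one step after 5 days, and nuclei were counted. Relative viability is the nuclei count for treated wells divided by that for vehicle wells, reported as medians of duplicate plates.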

[2] = compound: CC(O)(CS(=O)(=O)c1ccc(F)cc1)C(=O)Nc1ccc(C#N)c(C(F)(F)F)c1 [Bicalutamide] + Cc1cc(Nc2cc(N3CCN(C)CC3)nc(Sc3ccc(NC(=O)C4CC4)cc3)n2)n[nH]1 [Tozasertib] (partner 0.1 µM)
Summary of the method: as §1

[3] = compound: CC(O)(CS(=O)(=O)c1ccc(F)cc1)C(=O)Nc1ccc(C#N)c(C(F)(F)F)c1 [Bicalutamide] + Cc1nc(NC(=O)N2CCC[C@H]2C(N)=O)sc1-c1ccnc(C(C)(C)C(F)(F)F)c1 [Alpelisib] (partner 2 µM)
Summary of the method: as §1

[4] = compound: CC(O)(CS(=O)(=O)c1ccc(F)cc1)C(=O)Nc1ccc(C#N)c(C(F)(F)F)c1 [Bicalutamide] + N=C(N)NC(=N)NCCc1ccccc1 [Phenformin] (partner 250 µM)
Summary of the method: as §1

Cell Line | relative viability ([1]; first compound 0.08 µM) | relative viability ([1]; first compound 0.253 µM) | relative viability ([1]; first compound 0.8 µM) | relative viability ([1]; first compound 2.53 µM) | relative viability ([2]; first compound 0.08 µM) | relative viability ([2]; first compound 0.253 µM) | relative viability ([2]; first compound 0.8 µM) | relative viability ([2]; first compound 2.53 µM) | relative viability ([3]; first compound 0.08 µM) | relative viability ([3]; first compound 0.253 µM) | relative viability ([3]; first compound 0.8 µM) | relative viability ([3]; first compound 2.53 µM) | relative viability ([4]; first compound 0.08 µM) | relative viability ([4]; first compound 0.253 µM) | relative viability ([4]; first compound 0.8 µM) | relative viability ([4]; first compound 2.53 µM)
NCI-H2347 | 0.473 | 0.468 | 0.446 | 0.399 | 0.625 | 0.511 | 0.597 | 0.504 | 1.09 | 1.09 | 1.12 | 0.971 | 0.368 | 0.462 | 0.421 | 0.268
NCI-H2405 | 0.555 | 0.506 | 0.581 | 0.486 | 0.876 | 0.691 | 0.715 | 0.656 | 0.789 | 0.775 | 0.827 | 0.775 | 0.436 | 0.358 | 0.468 | 0.415
NCI-H3122 | 0.193 | 0.183 | 0.201 | 0.181 | 0.422 | 0.408 | 0.445 | 0.44 | 0.707 | 0.92 | 0.821 | 0.767 | 0.46 | 0.416 | 0.378 | 0.369
PC-3 [JPC-3] | 0.556 | 0.576 | 0.567 | 0.552 | 0.926 | 0.903 | 0.952 | 0.893 | 1.08 | 1.01 | 1.09 | 1.07 | 0.46 | 0.472 | 0.505 | 0.505
PC-14 | 0.583 | 0.466 | 0.677 | 0.422 | 0.643 | 0.616 | 0.744 | 0.588 | 0.916 | 0.952 | 0.969 | 0.869 | 0.701 | 0.541 | 0.96 | 0.527
RERF-LC-KJ | 1.08 | 1.05 | 1.17 | 0.865 | 0.48 | 0.521 | 0.494 | 0.338 | 0.756 | 0.81 | 0.948 | 0.777 | 0.406 | 0.396 | 0.431 | 0.336
SK-LU-1 | 0.403 | 0.452 | 0.43 | 0.378 | 0.341 | 0.291 | 0.295 | 0.319 | 1.12 | 0.962 | 1.41 | 0.848 | 0.571 | 0.519 | 0.637 | 0.48
SK-MES-1 | 0.319 | 0.3 | 0.3 | 0.281 | 1.08 | 0.853 | 0.867 | 0.66 | 0.903 | 0.718 | 1.02 | 0.858 | 0.726 | 0.654 | 0.728 | 0.617
SW 1573 | 0.418 | 0.451 | 0.457 | 0.351 | 0.205 |  | 0.231 | 0.135 | 0.678 | 0.639 | 0.831 | 0.689 | 0.413 |  | 0.377 | 0.366
UMC-11 | 0.34 | 0.367 | 0.319 | 0.347 | 0.193 | 0.184 | 0.191 | 0.191 | 1.05 | 0.9 | 1.12 | 0.976 | 0.35 | 0.319 | 0.372 | 0.302
